Consider 31 compounds from US8273769B2, “Phenoxy acetic acid derivatives” (Merck Serono SA, priority 2009, dated 2012).

In this experiment the target is T1, CRTH2 (Homo sapiens, UniProt Q9Y5Y4).
T1 sequence (Q9Y5Y4 1-395): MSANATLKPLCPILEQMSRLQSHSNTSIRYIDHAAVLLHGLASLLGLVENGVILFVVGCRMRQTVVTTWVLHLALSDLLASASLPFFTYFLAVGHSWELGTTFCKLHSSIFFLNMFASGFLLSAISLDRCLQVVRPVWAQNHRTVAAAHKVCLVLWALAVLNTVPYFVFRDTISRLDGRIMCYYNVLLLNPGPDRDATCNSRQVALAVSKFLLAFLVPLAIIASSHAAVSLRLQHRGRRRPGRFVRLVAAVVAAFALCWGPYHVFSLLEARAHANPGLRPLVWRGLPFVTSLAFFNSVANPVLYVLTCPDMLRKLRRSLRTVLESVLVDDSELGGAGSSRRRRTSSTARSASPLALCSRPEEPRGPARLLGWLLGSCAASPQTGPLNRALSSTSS
In words: Radioligand binding Scintillation Proximity Assay ([3H]PGD2, hCRTH2-CHO cell membranes). Set-up: host or cells: CHO cells. The conditions noted are these: 1.5 nM [3H]PGD2, hCRTH2-CHO cell membranes, SPA. On the procedure: Adherent CHO cells expressing hCRTH2 (Euroscreen, Belgium) were cultured in 225 cm^2 cell culture flasks (Corning, USA) in 30 ml of medium. After two rinses of phosphate buffered saline (PBS), cells were harvested in 10 ml of PBS containing 1 mM EDTA, centrifuged at 500×g for 5 min at 4° C. and frozen at −80° C. The pellet was re-suspended in 50 mM Tris-HCl, pH 7.4, 2 mM EDTA, 250 mM Sucrose, containing protease inhibitor cocktail tablets, (Complete EDTA-free, Roche, Germany) and incubated 30 min at 4° C. Cells were disrupted by nitrogen cavitation (Parr Instruments, USA) at 4° C. (800 p.s.i. for 30 min), and centrifuged at 500×g for 10 min at 4° C. Pellet containing nuclei and cellular debris was discarded and supernatant was centrifuged 60 min at 4° C. at 45000×g. Membrane pellet was re-suspended in storage buffer (10 mM HEPES/KOH pH 7.4, 1 mM EDTA, 250 mM sucrose, protease inhibitor cocktail tablets) using Dounce homogenization and frozen in liquid nitrogen, and stored at −80° C.
The inhibitory activity can be investigated by a radioligand binding Scintillation Proximity Assay (SPA) (Sawyer et al., Br. J. Pharmocol 2002, 137, 1163-72). The SPA radioligand binding assay was performed at room temperature in binding buffer (10 mM HEPES/KOH pH 7.4, 10 mM MnCl2, with protease inhibitor cocktail tablets), containing 1.5 nM [^3H]PGD2 (Perkin Elmer), 10-50 μg/ml of hCRTH2-CHO cell membrane protein and 2 mg/ml of Wheat-germ agglutinin Sintillation Proximity Assay beads (RPNQ0001, GE-Healthcare) in a final volume of 100 μl in 96 well plates (Corning, USA). Non-specific binding was determined in the presence of 10 μM PGD2 (Cayman, USA). Competing Compounds of Formula (I) were diluted in dimethylsulphoxide so that the total volume of dimethylsulfoxide was kept constant at 1% dimethylsulphoxide (Me2SO). Serial dilutions of 100 μM to 100 pM were prepared and 10 μl each of the compounds of Formula (I) stock solutions were added to the binding assay reagents and incubated for 90 min with agitation at room temperature. Binding activity was determined by using a 1450 Micro-beta scintillation counter (Wallac, UK).
(In general: Scintillation proximity formats need no separation of bound from free tracer.)
In the case of `CS(=O)(=O)c1ccc(N2CCCCC2)c(C#Cc2cc(Cl)ccc2OCC(=O)O)c1` [Example 57, (4-chloro-2-{[5-(methylsulfonyl)-2-piperidin-1-ylphenyl]ethynyl}phenoxy)acetic acid], the IC50 (commonly the midpoint of a concentration-inhibition curve) was 0.28 µM.

The compound `CS(=O)(=O)c1ccc(O)c(C#Cc2cc(Cl)ccc2OCC(=O)O)c1` [Example 60, (4-chloro-2-{[2-hydroxy-5-(methylsulfonyl)phenyl]ethynyl}phenoxy)acetic acid] had an IC50 of 0.296 µM.

On to `CS(=O)(=O)c1ccc(Cl)c(C#Cc2cc(C#N)ccc2OCC(=O)O)c1` [Example 61, (2-{[2-chloro-5-(methylsulfonyl)phenyl]ethynyl}-4-cyanophenoxy)acetic acid], for which the IC50 was 0.008 µM.

Compound `CS(=O)(=O)c1ccc(N2CCCCC2)c(C#Cc2cc(C#N)ccc2OCC(=O)O)c1` [Example 62, (4-cyano-2-{[5-(methylsulfonyl)-2-piperidin-1-ylphenyl]ethynyl}phenoxy)acetic acid] showed an IC50 of 0.202 µM.

Consider `CCS(=O)(=O)c1ccc(C)c(C#Cc2cc(C#N)ccc2OCC(=O)O)c1` [Example 63, (4-cyano-2-{[5-(ethylsulfonyl)-2-methylphenyl]ethynyl}phenoxy)acetic acid], for which the IC50 was 0.033 µM.

`Cc1ccc(S(=O)(=O)CCO)cc1C#Cc1cc(C#N)ccc1OCC(=O)O` [Example 64, [4-cyano-2-({5-[(2-hydroxyethyl)sulfonyl]-2-methylphenyl}ethynyl)phenoxy]acetic acid]: the IC50 is 0.136 µM.

For `CCCS(=O)(=O)c1cccc(C#Cc2nc(C)ccc2OCC(=O)O)c1` [Example 66, [(6-methyl-2-{[3-(propylsulfonyl)phenyl]ethynyl}pyridin-3-yl)oxy]acetic acid], the half-inhibitory concentration (IC50) came out at 0.193 µM.

On to `Cc1ccc(S(=O)(=O)C(C)C)cc1C#Cc1cc(C#N)ccc1OCC(=O)O` [Example 68, (4-cyano-2-{[5-(isopropylsulfonyl)-2-methylphenyl]ethynyl}phenoxy)acetic acid], for which the IC50 came to 0.012 µM.

Take `CS(=O)(=O)c1cncc(C#Cc2cc(C#N)ccc2OCC(=O)O)c1` [Example 69, (4-cyano-2-{[5-(methylsulfonyl)pyridin-3-yl}ethynyl]phenoxy)acetic acid]: the IC50 amounted to 0.186 µM.

As to `CN(c1cncc(C#Cc2cc(C#N)ccc2OCC(=O)O)c1)S(C)(=O)=O` [Example 72, [4-cyano-2-({5-[methyl(methylsulfonyl)amino]pyridin-3-yl}ethynyl)phenoxy]acetic acid], the IC50 came to 0.364 µM.

`Cc1ccc(S(=O)(=O)CCCO)cc1C#Cc1cc(C#N)ccc1OCC(=O)O` [Example 73, [4-cyano-2-({5-[(3-hydroxypropyl)sulfonyl]-2-methylphenyl}ethynyl)phenoxy]acetic acid] showed an IC50 of 0.057 µM.

In the case of `CCCS(=O)(=O)c1cccc(C#Cc2c(Cl)cccc2OCC(=O)O)c1` [Example 74, (3-chloro-2-{[3-(propylsulfonyl)phenyl]ethynyl}phenoxy)acetic acid], the IC50 came to 0.07 µM.

For the compound `N#Cc1ccc(OCC(=O)O)c(C#Cc2cncc(S(=O)(=O)NCCO)c2)c1` [Example 75, {4-cyano-2-[(5-{[(2-hydroxyethyl)amino]sulfonyl}pyridin-3-yl)ethynyl]phenoxy}acetic acid], the IC50 stood at 0.372 µM.

Consider `N#Cc1ccc(OCC(=O)O)c(C#Cc2cncc(S(=O)(=O)N3CC(F)(F)C3)c2)c1` [Example 76, [4-cyano-2-({5-[(3,3-difluoroazetidin-1-yl)sulfonyl]pyridin-3-yl}ethynyl)phenoxy]acetic acid], for which the IC50 came to 0.171 µM.

`N#Cc1ccc(OCC(=O)O)c(C#Cc2cncc(S(=O)(=O)N3CCOCC3)c2)c1` [Example 77, (4-cyano-2-{[5-(morpholin-4-ylsulfonyl)pyridin-3-yl]ethynyl}phenoxy)acetic acid] showed an IC50 of 0.36 µM.

As for `O=C(O)COc1ccc(Cl)cc1C#Cc1cncc(S(=O)(=O)N2CC(F)(F)C2)c1` [Example 78, [4-chloro-2-({5-[(3,3-difluoroazetidin-1-yl)sulfonyl]pyridin-3-yl}ethynyl)phenoxy]acetic acid], the concentration for half-maximal inhibition (IC50) turned out to be 0.04 µM.

Compound `O=C(O)COc1ccc(Cl)cc1C#Cc1cncc(S(=O)(=O)N2CCOCC2)c1` [Example 79, (4-chloro-2-{[5-(morpholin-4-ylsulfonyl)pyridin-3-yl]ethynyl}phenoxy)acetic acid] displayed an IC50 of 0.052 µM.

`CN(C)S(=O)(=O)c1cccc(C#Cc2cc(Cl)ccc2OCC(=O)O)c1` [Example 80, [4-chloro-2-({3-[(dimethylamino)sulfonyl]phenyl}ethynyl)phenoxy]acetic acid] showed an IC50 of 0.019 µM.

For `CCN(CC)S(=O)(=O)c1ccc(C)c(C#Cc2cc(Cl)ccc2OCC(=O)O)c1` [Example 81, [4-chloro-2-({5-[(diethylamino)sulfonyl]-2-methylphenyl}ethynyl)phenoxy]acetic acid], the IC50 was 0.005 µM.

In the case of `Cc1ccc(S(=O)(=O)N2CCOCC2)cc1C#Cc1cc(Cl)ccc1OCC(=O)O` [Example 82, (4-chloro-2-{[2-methyl-5-(morpholin-4-ylsulfonyl)phenyl]ethynyl}phenoxy)acetic acid], the IC50 worked out at 0.005 µM.

In turn, `CNS(=O)(=O)c1ccc(C)c(C#Cc2cc(Cl)ccc2OCC(=O)O)c1` [Example 84, [4-chloro-2-({2-methyl-5-[(methylamino)sulfonyl]phenyl}ethynyl)phenoxy]acetic acid] had a half-inhibitory concentration (IC50) of 0.013 µM.

On to `Cc1ccc(S(=O)(=O)NC(C)(C)C)cc1C#Cc1cc(Cl)ccc1OCC(=O)O` [Example 85, [2-({5-[(tert-butylamino)sulfonyl]-2-methylphenyl}ethynyl)-4-chlorophenoxy]acetic acid], for which the IC50 came out at 0.007 µM.

Take `Cc1ccc(S(=O)(=O)N2CCCCC2)cc1C#Cc1cc(Cl)ccc1OCC(=O)O` [Example 88, (4-chloro-2-{[2-methyl-5-(piperidin-1-ylsulfonyl)phenyl]ethynyl}phenoxy)acetic acid]: the IC50 worked out at 0.007 µM.

In turn, `CS(=O)(=O)c1ccc(C#Cc2cc(Cl)ccc2OCC(=O)O)cc1` [Example 90, (4-chloro-2-{[4-(methylsulfonyl)phenyl]ethynyl}phenoxy)acetic acid] displayed a half-maximal inhibitory concentration (IC50) of 0.154 µM.

`Cc1ccc(S(=O)(=O)Cc2ccccc2)cc1C#Cc1cc(Cl)ccc1OCC(=O)O` [Example 91, (2-{[5-(benzylsulfonyl)-2-methylphenyl]ethynyl}-4-chlorophenoxy)acetic acid] had an IC50 of 0.007 µM.

For `Cc1ccc(S(=O)(=O)CCc2ccccc2)cc1C#Cc1cc(Cl)ccc1OCC(=O)O` [Example 92, [4-chloro-2-({2-methyl-5-[(2-phenylethyl)sulfonyl]phenyl}ethynyl)phenoxy]acetic acid], the IC50 was 0.009 µM.

For `Cc1ccc(S(=O)(=O)Cc2ccccc2)cc1C#Cc1cc(C#N)ccc1OCC(=O)O` [Example 93, (2-{[5-(benzylsulfonyl)-2-methylphenyl]ethynyl}-4-cyanophenoxy)acetic acid], the IC50 was determined as 0.013 µM.

`Cc1ccc(S(=O)(=O)c2ccccc2)cc1C#Cc1cc(C#N)ccc1OCC(=O)O` [Example 94, (4-cyano-2-{[2-methyl-5-(phenylsulfonyl)phenyl]ethynyl}phenoxy)acetic acid] had a half-inhibitory concentration (IC50) of 0.011 µM.

Turning to `Cc1ccc(S(=O)(=O)CCc2ccccc2)cc1C#Cc1cc(C#N)ccc1OCC(=O)O` [Example 96, [4-cyano-2-({2-methyl-5-[(2-phenylethyl)sulfonyl]phenyl}ethynyl)phenoxy]acetic acid], the IC50 was 0.007 µM.

In turn, `Cc1cc(F)c(S(C)(=O)=O)cc1C#Cc1cc(Cl)ccc1OCC(=O)O` [Example 97, (4-chloro-2-{[4-fluoro-2-methyl-5-(methylsulfonyl)phenyl]ethynyl}phenoxy)acetic acid] came in with an IC50 of 0.008 µM.

`CS(=O)(=O)Cc1cccc(C#Cc2cc(Cl)ccc2OCC(=O)O)c1` [Example 98, [4-chloro-2-({3-[(methylsulfonyl)methyl]phenyl}ethynyl)phenoxy]acetic acid] came in with an IC50 of 0.06 µM.
